From BindingDB's records for PubMed 7791120 (Hospital Saint-Antoine, 1995)
Several values for one entry are separate records, joined by “and”; a condition that tells them apart may be missing. Equal entries are not always repeated.

Target: Neurotensin (Cavia porcellus, UniProt P32560)

| Ki | Compound |
| --- | --- |
| 1600 nM | CCC(C)C(N)C(=O)C(C)(CC(=O)C(N)CCCCN)C(C(=O)C(N)Cc1ccc(O)cc1)(C(=O)C1CCCN1)C(N)(C(=O)O)C(=O)C(N)C(C)CC (centres undefined) [NSC_3025353] |
| 2000 nM and 2100 nM | COc1cccc(OC)c1-c1cc(C(=O)N[C@@H](C(=O)O)C2CCCCC2)nn1-c1ccnc2cc(Cl)ccc12 [SR 49711] |
| 0.99 nM and 2.5 nM | COc1cccc(OC)c1-c1cc(C(=O)NC2(C(=O)O)C3CC4CC(C3)CC2C4)nn1-c1ccnc2cc(Cl)ccc12 (centres undefined) |
| 1.7 nM and 4.5 nM | COc1cccc(OC)c1-c1cc(C(=O)N[C@H](C(=O)O)C2CCCCC2)nn1-c1ccnc2cc(Cl)ccc12 |
